{"source": "patent US20210071183A1", "about": "“ZINC ASSOCIATED TREATMENT FOR AND DIAGNOSIS OF CACHEXIA” (THE TRUSTEES OF COLUMBIA UNIVERSITY IN THE CITY OF NEW YORK, priority 2018, published 2021)", "key": {"[1]": {"tested_on": "Zip14 expression", "assay": "Zip14 qRT-PCR in murine C2C12 myoblasts treated with cytokines and signaling pathway inhibitors", "assay_type": "cell-based, mouse", "conditions": "for Zip14 expression after recombinant cytokine treatment: murine C2C12 myoblasts, TNFα 50 ng/ml, TGFβ 10 ng/ml", "experimental": "(§1) Treatment with cytokines and signaling pathway inhibitors: Murine C2C12 myoblasts and human primary skeletal myoblasts were serum-starved overnight, and then treated with or without inhibitors of the TGFβ/Smad, […] pathways, which are SB431542 (purchased from Thermo Fisher), CC401 (purchased from Thermo Fisher) and BAY 11-7085 (purchased from Enzo), respectively, followed by treatment with recombinant cytokines purchased from R&D Systems (recombinant mouse TNFα and TGFβ1 at 50 ng/ml and 10 ng/ml, respectively, for C2C12, recombinant human TNFα and TGFβ1 at 50 ng/ml and 10 ng/ml, respectively, for human primary skeletal myoblasts). Cells were pretreated with either vehicle (DMSO) control, or 10 μM of the respective pathway inhibitors for 1 hour, and then treated with TGFβ1 for 9 hours or TNFα for 3 hours before harvest. Cells with different treatments were harvested together for subsequent analysis."}, "[2]": {"tested_on": "Zip14 expression", "assay": "Zip14 qRT-PCR in human primary skeletal myoblasts treated with cytokines and signaling pathway inhibitors", "assay_type": "cell-based", "conditions": "human primary muscle cells; for Zip14 expression after recombinant cytokine treatment: TNFα 50 ng/ml, TGFβ 10 ng/ml", "experimental": "as §1"}, "[3]": {"tested_on": "Zip14-expressing myoblasts", "assay": "Muscle differentiation assays with zinc", "assay_type": "cell-based, mouse", "experimental": "Adenoviral infection: C2C12 cells or mouse primary myoblasts were cultured overnight. C2C12 cells were infected with adenovirus expressing either GFP (green fluorescent protein) control (Adeno-GFP) or mouse Zip14 (Adeno-Zip14, purchased from Vector Biolabs). Primary myoblasts were infected with adenovirus expressing either GFP control (Adeno-GFP) or mouse Zip14 (Adeno-Zip14).\nMuscle differentiation assays: Differentiation was initiated after adenoviral infection by switching the growth medium to differentiation medium (DMEM containing 2% horse serum and 5 μg/ml of insulin for C2C12 cells; DMEM containing 2% horse serum without insulin for primary myoblasts) the day after infection. Differentiation medium was changed at designated time-points.\n(§2) Zinc and MG132 treatment of muscle cells: 3-day differentiated C2C12 cells were cultured with 50 μM ZnCI2 in differentiation medium for 24 hours. Cells were then used for immunofluorescence staining, gene expression analysis and immunoblot analysis. For MG-132 (benzyloxycarbonylleucyl-leucyl-leucine aldehyde, a proteasome inhibitor) treatment, 3-day differentiated C2C12 cells expressing Zip14 (Adeno-Zip14) were treated with 50 μM ZnCI2 for 24 hours, and then treated with either vehicle (DMSO) or MG132 (50 μM) for 3 hours prior to harvest for immunoblot analysis."}, "[4]": {"assay": "Food and water intake, behavioral coordination, liver and kidney function with zinc-supplemented water", "assay_type": "in vivo, mouse", "conditions": "C26m2 tumor-bearing mice with excess zinc supplementation", "experimental": "(§3) Zinc-supplemented water treatment for mice: ZnS04 solution was purchased from Sigma. Zip14 WT and KO mice were given either regular water or zinc-supplemented drinking water (25 mM ZnS04 in their drinking water). Zinc water was started from the day of tumor injection in the tumor-bearing group and in matched uninjected controls, which continued until the animals were euthanized at 15 days. Tumors were not resected because cachectic symptoms started to develop early and were visible between 8-10 days in the tumor-bearing Zip14 WT group of mice on zinc-enriched water.\nBehavioral coordination tests in mice: Rotamex-5 (Columbus Instruments) with a rod diameter of 3 cm, was used for testing coordination in mice. In this setup, automatic fall detection is implemented within each lane by a series of photocells placed above the rotating rod. The speed of the rotating rod is programmed for either constant or accelerated modes. […] Latency to fall is detected with 0.1 second temporal resolution. […] For each mouse, an average of 3 runs are recorded, with 5 minutes rest between each run. The speed that the rod is spinning at when the mouse falls is measured in RPMs. The time it takes for the mouse to fall is measured in seconds. […] When the mice fall off the speed of the rod and amount of time the mouse was on the rod are recorded. […]"}, "[5]": {"tested_on": "C26m2 tumor-bearing Zip14 WT and KO mice", "assay": "Zinc-supplemented water treatment for mice", "assay_type": "in vivo, mouse", "experimental": "as §3"}, "[6]": {"tested_on": "myosin heavy chain (MyHC)", "assay": "Zinc and MG132 treatment of differentiated C2C12 muscle cells (immunoblot of myofibrillar proteins)", "assay_type": "cell-based, mouse", "experimental": "as §2\nSubcellular fractionation of differentiated C2C12 muscle cells: Fractionation of soluble and myofibrillar components was performed. Differentiated C2C12 muscle cells were collected in cold lysis buffer (20 mM of Tris-HCl pH 7.2, 5 mM of EGTA, 100 mM of KCl, 1% Triton X-100, and 1× protease and phosphatase inhibitor cocktail), and lysed by gentle agitation at 4° C. for 1 h. After centrifugation at 3,000×g for 30 mins at 4° C., the cytosolic fraction (supernatant) was collected and stored in −80° C. The pellet (myofibrils) was washed twice with wash buffer (20 mM of Tris-HCl, pH 7.2, 100 mM of KCl, and 1 mM of DTT). After centrifugation at 3,000×g for 10 mins at 4° C., myofibrillar fraction was extracted in ice-cold extraction buffer (0.6 M of KCl, 1% Triton X-100, 2 mM of EDTA, 1 mM of DTT and 1× protease and phosphatase inhibitor cocktail) with shaking at 4° C. The purified myofibrillar fraction was collected after centrifugation for 3,000×g at 4° C. and stored in −80° C. until further use."}, "[7]": {"tested_on": "C2C12 cells", "assay": "Cell viability assay (MTS, cleaved caspase-3)", "assay_type": "cell-based", "conditions": "Zip14-expressing cells; 50 μM ZnCl2 24 h", "experimental": "Cell viability assay: Viability of C2C12 cells was determined by MTS assay (a cell proliferation assay based on a colorimetric method for quantification of viable cells in proliferation and cytotoxicity assay) using CellTiter 96® Aqueous One Solution Cell Proliferation Assay kit (purchased from Promega) containing tetrazolium compound. C2C12 cells infected with Adeno-GFP control or Adeno-Zip14 were plated in growth media and differentiated. Cells were treated with 50 μM of ZnCl2 for 24 h. Cell viability was measured by adding 100 μl of growth medium without phenol red to each well after aspirating media from the wells. 20 μl of CellTiter 96 AGueous One Solution Reagent was added to each well. After 1 hour of incubation at 37° C. in CO2 incubator, the amount of soluble formazan was determined by absorbance at 450 nm. Undifferentiated and differentiated C2C12 cells were collected for immunoblot analysis probing for cleaved-caspase-3 expression to assess cell-death. C2C12 cells treated with the indicated doses of doxorubicin (doxo) (purchased from Sigma) served as positive control for both types of viability assays."}, "[8]": {"tested_on": "4T1 tumor-bearing mice", "assay": "Zinc chelator injection in 4T1 tumor-bearing mice", "assay_type": "in vivo, mouse", "conditions": "150 mg/kg body weight daily from 7 days post-tumor cell injection, 4 weeks", "experimental": "The effects of zinc chelator injection were analyzed using healthy or C26m2 tumor bearing mice. Excess zinc supplementation exacerbates muscle wasting, while zinc chelation reduces muscle wasting in tumor-bearing mice. […] (A-B) Healthy or C26m2 tumor bearing mice of the indicated genotypes (Zip14 WT or KO) were either treated with regular or zinc-enriched water (25 mM) from the day of tumor cell injection and muscles were collected after […]. Body weight analysis (A) and relative MuRF1/MAFBx mRNA expression levels indicative of muscle wasting (B) are shown. C. Mice were injected with 4T1 tumor cells and were divided into 3 groups, one was provided with regular diet with 86 ppm zinc, second group with 1000 ppm zinc-supplemented diet (high zinc diet) and third group with regular diet with 86 ppm zinc but with zinc chelator injected daily with Sodium diethyldithiocarbamate trihydrate (DEDTC) at 150 mg/kg body weight injected 7 days post-tumor cell injection. Mice were sacrificed after 4 weeks post-tumor cell injection. In all experiments, n=3-8 per group. ns, not significant. *p≤0.05, **p≤0.01, ***p≤0.001 and ****p≤0.0001."}, "[9]": {"conditions": "Zip14-wild-type tumor-bearing mice (C26m2), 25 mM ZnSO4 drinking water"}, "[10]": {"conditions": "Zip14-expressing myotubes treated with zinc (50 μM) for 24 hours"}}, "note": "Where a SMILES comes first, the peptide text is derived from it. The star is where a group is joined. Cbz = O=C(OCc1ccccc1)*"}
{"compound": "TGFβ: recombinant mouse or human TGFβ1 cytokine from R&D Systems", "values": [{"measurement": "Zip14 expression after recombinant cytokine treatment", "setting": "[1]", "result": "significantly induced"}, {"measurement": "Zip14 expression after recombinant cytokine treatment", "setting": "[2]", "result": "significantly induced"}]}
{"compound": "TNFα", "values": [{"measurement": "Zip14 expression after recombinant cytokine treatment", "setting": "[1]", "result": "significantly induced"}, {"measurement": "Zip14 expression after recombinant cytokine treatment", "setting": "[2]", "result": "significantly induced"}]}
{"compound": "[Zn]", "note": "[zinc]", "values": [{"measurement": "differentiation of myoblasts (MyHC expression, morphology)", "setting": "[3]; Zip14-expressing C2C12 and primary myoblasts, 50 μM ZnCl2", "result": "selectively blocked"}, {"measurement": "MyoD, Mef2c, and Myf5 transcription", "setting": "[3]; Zip14-expressing C2C12 myoblasts, 50 μM ZnCl2 24 hours, qRT-PCR", "result": "transcriptional repression"}, {"measurement": "food or water intake, behavior, liver or kidney function", "setting": "[4]", "result": "No changes"}, {"measurement": "body weight loss", "setting": "[5]; [9]", "result": "substantial acceleration"}, {"measurement": "muscle atrophy", "setting": "[5]; [9]", "result": "increase"}, {"measurement": "growth kinetics", "setting": "[5]; absence of tumors, Zip14-wild-type and knockout mice, 25 mM ZnSO4 drinking water", "result": "no detrimental effect"}, {"measurement": "muscle wasting", "setting": "[5]; tumor-bearing mice, zinc-enriched water (25 mM) or 1000 ppm zinc-supplemented diet", "result": "exacerbates"}, {"measurement": "MyHC protein", "setting": "[6]; [10]", "result": "striking loss"}, {"measurement": "skeletal actin, tropomyosin, troponin, desmin and myosin light chain (MyLC) protein", "setting": "[6]; [10]", "result": "remained unchanged"}, {"measurement": "viability", "setting": "[7]", "result": "no loss"}]}
{"compound": "NC(=O)c1ccc(-c2nc(-c3ccc4c(c3)OCO4)c(-c3ccccn3)[nH]2)cc1", "note": "[SB431542]", "values": [{"measurement": "Zip14 expression (TGFβ-induced)", "setting": "[1]; murine C2C12 cells, TGFβ 10 ng/ml 9 hours, 10 μM inhibitor pretreated 1 hour, qRT-PCR", "result": "blocked"}, {"measurement": "Zip14 expression (TGFβ-induced)", "setting": "[2]; TGFβ 10 ng/ml 9 hours, 10 μM inhibitor pretreated 1 hour, qRT-PCR", "result": "blocked"}]}
{"compound": "CC(C)C[C@@H](C=O)NC(=O)[C@H](CC(C)C)NC(=O)[C@H](CC(C)C)NC(=O)OCc1ccccc1", "note": "[MG132, benzyloxycarbonylleucyl-leucyl-leucine aldehyde, reference compound] (Cbz-Leu-Leu-Leu-aldehyde)", "values": [{"measurement": "MyHC loss", "setting": "[6]; Zip14-expressing 3-day differentiated C2C12, 50 μM ZnCl2 24 h, MG132 50 μM 3 hours prior to harvest", "result": "could be blocked"}]}
{"compound": "CC(C)(C)c1ccc(S(=O)(=O)/C=C/C#N)cc1", "note": "[Bay11-7085]", "values": [{"measurement": "Zip14 expression (TNFα-induced)", "setting": "[1]; murine C2C12 cells, TNFα 50 ng/ml 3 hours, 10 μM inhibitor pretreated 1 hour, qRT-PCR", "result": "blocked"}, {"measurement": "Zip14 expression (TNFα-induced)", "setting": "[2]; TNFα 50 ng/ml 3 hours, 10 μM inhibitor pretreated 1 hour, qRT-PCR", "result": "blocked"}]}
{"compound": "CCN(CC)C(=S)[S-].O.O.O.[Na+]", "note": "[DEDTC, Sodium diethyldithiocarbamate trihydrate]", "values": [{"measurement": "muscle wasting", "setting": "[8]", "result": "reduces"}]}
